Tests used:
[1] = test system: KLF15 reporter; test: KLF15 reporter activity in LPS-treated human podocytes (podocyte stress model); type: cell-based
Experimental: (§1) FIG. 10A-D show representative data illustrating the dose-response curve and EC50 (FIG. 10A), KLF15 reporter activity (FIG. 10B), and Renilla activity (cell viability) (FIG. 10C) in LPS-treated HP, and the therapeutic efficacy in abrogating albuminuria (biomarker of kidney disease) in LPS-treated mice (FIG. 10D).
(§2) After the synthesis of these novel analogues, a primary screening assay was conducted.

[2] = test system: IL-17R signaling
[3] = test system: human podocytes; test: KLF15 and synaptopodin expression and actin stress fibers in LPS-treated human podocytes; type: cell-based; details: LPS conditions, vs DMSO-treated podocytes
[4] = test system: KLF15; test: KLF15 activity in ADR-treated cultured human podocytes; type: cell-based; details: nonpermissive conditions 37° C., vs DMSO
[5] = test system: human podocytes; test: Podocyte survival (Renilla, cell viability) after LPS treatment; type: cell-based; details: LPS-treated human podocytes
Experimental: as §1, §2

[6] = test system: KLF15 promoter; test: KLF15 promoter activity in human podocytes, KLF15 agonist combined with dexamethasone; type: cell-based; details: K-7 combined with DEX, dose-response curves
[7] = test system: KLF15 promoter mutated at the GR binding site; test: GR-mutant KLF15 reporter assay; type: cell-based, human
[8] = test system: Db/db mice on the FVB/N background; test: db/db murine model of progressive diabetic kidney disease; type: in vivo; details: subcutaneous minipump, 0.85 μg/day for 14 days
Excerpt: Db/db mice on the FVB/N background were utilized as a murine model of progressive diabetic kidney disease (DKD), where there is significant podocyte injury and glomerulosclerosis.

[9] = test system: human podocytes; test: Cell viability (renilla activity, MTT assay) in ADR-treated cultured human podocytes; type: cell-based; details: vs K-9, K-15, DEX, DMSO
[10] = test system: KLF15 promoter; test: KLF15 reporter human podocyte assay (HTS, dose-response, primary screening); type: cell-based; details: for EC50: dose-response curve, human podocytes, luciferase/renilla
Experimental: A stable reporter assay directed at KLF15 promoter region (4.3 kb region) was generated in human podocytes, a fragment of human KLF15 promoter upstream of the start codon, by amplifying and subcloning it into the firefly luciferase reporter plasmid (co-transfection with renilla to serve as internal controls). KLF15 promoter activity is measured as a ratio of luciferase to renilla activity. Using this reporter cell line, a cell-based HTS assay was developed using recently reported cell-seeding methodology specific to cultured podocytes (16).

[11] = test system: LPS-treated mice; test: LPS-induced albuminuria murine model; type: in vivo; details: vs DMSO
Experimental: Referring to FIG. 10D, C57BL/6 mice were treated with lipopolysaccharide (LPS) at dose of 10 μg/g in two divided doses 24 hours apart intraperitoneally to induce podocyte injury and albuminuria.

SMILES: CSc1ccc(NC(=O)Nc2cc(C)ccn2)cc1 [Compound K-7]
- KLF15 reporter activity after LPS treatment [1]: improved KLF15 reporter activity
- genes involved in IL-17R and NF-κB signaling, chemokine/inflammatory signaling and fibrosis pathways (RNA-seq enrichment) ([2]; K-7 vs DMSO in LPS-treated podocytes): significant decrease
- transcripts downstream of IL-17R signaling (CSF2, CSF3, CXCL2, CXCL3, CCL2, IL1β) ([2]; cultured human podocytes, LPS treatment): suppressed
- KLF15 expression [3]: restored
- actin stress fiber formation [3]: restored
- synaptopodin expression [3]: restored
- KLF15 activity [4]: restored KLF15 activity
- podocyte survival after LPS treatment [5]: improved
- DEX dose required to induce KLF15 reporter activity [6]: reduced the DEX dose required to induce KLF15 reporter activity
- KLF15 reporter activity with KLF15 promoter mutated at the GR binding site [7]: induce KLF15 reporter activity independent of GR signaling
- podocyte effacement ([8]; PAS staining and TEM): attenuated podocyte effacement
- glomerular basement membrane (GBM) thickness ([8]; quantified with ImageJ): reduced
- glomerular volume ([8]; quantified with ImageJ): reduced glomerular volume
- cell viability (renilla activity and MTT assay) [9]: significantly improved
- maximal KLF15 reporter activity ([10]; dose escalation, at similar concentrations to DEX): higher maximal KLF15 reporter activity
- EC50 [10]: ~11.9 nM
- albuminuria ([11]; 5 mg/kg every 12 hours, LPS-proteinuric mice): significant improvement in albuminuria
- albuminuria ([11]; C57BL/6 mice, LPS 10 μg/g, subcutaneous minipump 3.5 μg/day for 48 hours): significantly reduced albuminuria

SMILES: Nc1ccccc1-n1nc2ccc3ccccc3c2n1 [Compound K-9]
- KLF15 activity [4]: restored KLF15 activity
- KLF15 reporter activity with KLF15 promoter mutated at the GR binding site [7]: induce KLF15 reporter activity independent of GR signaling
- EC50 [10]: ~76.2 nM

SMILES: O=C(Nc1ccc2ccccc2c1)c1ccc(Cl)cc1Cl [Compound K-15]
- KLF15 activity [4]: restored KLF15 activity
- KLF15 reporter activity with KLF15 promoter mutated at the GR binding site [7]: induce KLF15 reporter activity independent of GR signaling
- EC50 [10]: ~10.9 nM
